Assays:
BMP-2 protein in hBMSCs = assay: BMP-2 protein level in hBMSCs by western blot; assay type: cell-based, human; conditions: 1000 μM 4-AP
Protocol: FIGS. 2A-2B. Western blot analysis of BMP-2 protein. Incubation of hBMSCs in Dulbecco's modified Eagle's medium supplemented with 10% FBS and penicillin/streptomycin (100 U/mL penicillin and […] streptomycin) in the presence of 1000 μM 4-AP increased BMP-2 protein at day 3, 7, and 14. The blots were stripped and reprobed with anti-GAPDH antibody. FIG. 2A: Representative image of a western blot of BMP-2 at day 3, 7, and 14. FIG. 2B: Densitometric analysis was carried out and the BMP-2 was normalized with GAPDH to calculate fold change. Data are presented as mean±SEM (n=3). Values are significant at *p<0.05, Abbreviations used; 4—AP-4-aminopyridine, BMP-2—bone morphogenetic protein-2, GAPDH-glyceraldehyde-3-phosphate dehydrogenase. Protein level by western blot: Total protein was extracted from hBMSCs with RIPA lysis buffer at the end of 3, 7, and 14 days of 4-AP treatment. The protein concentrations of cell lysates were determined using Pierce BCA Protein Assay kit (Thermo Fischer Scientific). Total cell lysates containing equal amounts of protein were denatured with SDS reducing buffer. The denatured proteins were separated on 10% polyacrylamide gel and transferred to a PVDF membrane. The blots were blocked and probed with primary and secondary antibodies, followed by visualization of bands by chemiluminescence peroxidase substrate. The BMP-2 band intensities were analyzed by ImageJ software (FIGS. 2A and 2B).

[1] = system: BMP-2 gene expression in human fetal osteoblasts (hFOB); assay: BMP-2 gene expression in human fetal osteoblasts (hFOB) by quantitative real-time PCR; assay type: cell-based; conditions: 1000 μM 4-AP for 3 days, normalized with β-actin
Protocol: FIG. 3. 4-AP upregulates BMP-2 gene expression in human fetal osteoblasts (hFOB). […] The gene expression levels were normalized with β-actin and was then used to calculate fold change in 4-AP treated compared to control. Data are presented as mean±SEM (n=3). Values are significant at *p<0.05. Abbreviations used; 4-AP—4-aminopyridine. Human fetal osteoblasts (hFOB) were cultured in growth medium supplemented with 4-AP for 3 days. Total RNA was isolated from the cells at the end of treatment, converted to cDNA, and the gene expression of bone morphogenetic protein-2 (BMP-2) was analyzed by quantitative real-time PCR (FIG. 3).

[2] = system: BMP-2 gene expression in human bone marrow mesenchymal stem cells (hBMSCs); assay: BMP-2 gene expression in hBMSCs by quantitative real-time PCR; assay type: cell-based; conditions: 1000 μM 4-AP
Protocol: FIG. 1. 4-AP upregulates BMP-2 expression in human bone marrow mesenchymal stem cells (hBMSCs). hBMSCs were incubated in Dulbecco's modified Eagle's medium supplemented with 10% FBS and penicillin/streptomycin (100 U/mL penicillin and […] streptomycin) in the presence of 1000 μM 4-AP induced expression of BMP-2 gene. BMP-2 gene expression was increased at day 3 and remained high at day 7 and day 14. The gene expression levels of BMP-2 were normalized with β-actin and were then used to calculate fold change in 4-AP treated compared to control. Data are presented as mean±SEM (n=3). Values are significant at *p<0.05, **p<0.01. Abbreviations used; BMP-2 —bone morphogenetic protein-2. Human bone marrow mesenchymal stem cells (hBMSC) were cultured in growth medium supplemented with 4-AP for 3, 7, and 14 days. Total RNA was isolated from the cells at the end of treatment, converted to cDNA, and the gene expression of bone morphogenetic protein-2 (BMP-2) was analyzed by quantitative real-time PCR. Gene expression by quantitative real-time PCR: Quantitative real-time PCR was carried out to determine gene expression of BMP-2 by hBMSCs incubated in Dulbecco's modified Eagle's medium with 10% fetal bovine serum (FBS) and penicillin/streptomycin (100 U/mL penicillin and […] streptomycin) at a humidified atmosphere of 5% CO2 under 37° C. Cell cultures were supplemented with 1000 μM 4-AP for 3, 7, and 14 days. Total RNA was isolated from the cells and converted to cDNA using verso cDNA synthesis kit (Thermo Fischer Scientific). The cDNA obtained was analyzed in a quantitative real-time PCR (FIG. 1).

[3] = system: tibial fracture in C57BL/6J mice; assay: Mid-diaphysis tibial fracture healing in mice, micro-CT analysis of callus; assay type: in vivo
Description: 8 week old C57Bl/6J mice were subjected to mid-diaphysis tibial fracture, treated with 4-AP for 21 days, and harvested. FIG. 4A: Representative X-ray images at the end of 21 days of 4-AP treatment. FIG. 4B: Representative micro-CT images of tibia fracture on day 21. […] FIG. 4D: Graphical presentation of Micro CT analysis of bone mineral density (BMD), and bone volume density (BV/TV). Data are presented as mean±SEM (n=6). Values are significant at *p<0.05.
Ten-week-old male C57/BL6J mice were purchased from the Jackson laboratory (Bar Harbor, ME, USA) and were maintained in a 12-h light, 12-h dark cycle at 21.1° C. to 22.8° C. After acclimatization, all mice were randomly divided in to two groups: 1) control and 2) 4-AP.
A mid diaphysis tibial fracture was performed in ten-week-old male mice. After the mice were anesthetized with ketamine/xylazine, a 5 mm longitudinal incision will be made at the front of the proximal tibia. The mid diaphysis of the tibia will be identified, and an osteotomy will be created with a No. 11 scalpel blade preventing any comminution. A 27G hypodermic needle will be introduced into the tibial canal for intramedullary fixation. Buprenorphine was given as post-operative analgesia. X-ray images were acquired post-operatively and mice received saline or 4-AP on the same day. Control group received 100 μl of saline, and a 4-AP group received 40 μg/mouse/daily 4-AP (1.6 mg/kg) in saline intraperitoneally until day 21 post-surgery.
For micro-CT analysis, tibia of control and 4-AP mice were dissected of soft tissue and fixed in neutral buffered formalin. μCT scanning was conducted using a Scanco vivaCT 40. […] Callus area from control and 4-AP mice tibia were assessed for bone mineral density (BMD) and percent bone volume per total volume (% BV/TV).
Tibial fracture was performed in C57BL/6J mice, which were then treated with 4-AP for 21 days for the evaluation of fracture healing parameters. The bone mineral density and bone volume density were determined by micro-CT analysis at the end of 21 days 4-AP treatment.

[4] = C57BL/6J mice, tibial fracture, 40 μg/mouse/daily 4-AP (1.6 mg/kg) intraperitoneally, 21 days, micro-CT, compared to saline treated controls

`Nc1ccncc1` [4-AP, 4-aminopyridine] was tested, and the “BMP-2 protein (western blot, normalized with GAPDH)” value (BMP-2 protein in hBMSCs; day 3) was “increased”, the “BMP-2 protein (western blot, normalized with GAPDH)” value (BMP-2 protein in hBMSCs; day 7) was “increased” and the “BMP-2 protein (western blot, normalized with GAPDH)” value (BMP-2 protein in hBMSCs; day 14) was “increased”. For the same compound, the “expression of BMP-2 compared with the control group” value [1] was “significantly increased”, the “BMP-2 gene expression (fold change vs control, normalized with β-actin)” value ([2]; day 3) was “increased” and the “BMP-2 gene expression (fold change vs control, normalized with β-actin)” value ([2]; day 7) was “remained high”. For the same compound, the “BMP-2 gene expression (fold change vs control, normalized with β-actin)” value ([2]; day 14) was “remained high”, the “bone mineral density within the callus area” value [3, 4] was “higher” and the “bone volume density (BV/TV) within the callus area” value [3, 4] was “higher”. The bone fracture healing ([3]; C57Bl/6J mice, mid-diaphysis tibial fracture, treated with 4-AP for 21 days) was “enhanced”.

Source: patent US12268677B2, “4-aminopyridine (4-AP) and bone morphogenetic protein 2 (BMP-2)” (The Penn State Research Foundation, priority 2022, dated 2025)
